Experimental findings from the supplement of paper PMC10307832 are described below.

What all share (assay): relative viability (nuclei count vs DMSO), 5 days (fraction); higher = more cells survive
Compound in the assay “Midostaurin + Crizotinib”: CO[C@@H]1[C@H](N(C)C(=O)c2ccccc2)C[C@H]2O[C@]1(C)n1c3ccccc3c3c4c(c5c6ccccc6n2c5c31)C(=O)NC4 [Midostaurin] + C[C@@H](Oc1cc(-c2cnn(C3CCNCC3)c2)cnc1N)c1c(Cl)ccc(F)c1Cl [Crizotinib] (partner 1 µM)
The method, boiled down: (§1)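 Relative viability was taken as the ratio of nuclei in treated wells to nuclei in vehicle wells. Lung cancer cell lines in 1536-well plates received compounds by pin tool one day after seeding, either one drug alone or a fixed anchor-drug dose plus five library-drug doses (not always all listed) in √10 steps. Nuclei were counted on 4× images after 5 days of treatment, and values are medians of duplicate plates.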

Compound in the assay “Midostaurin + Alpelisib”: CO[C@@H]1[C@H](N(C)C(=O)c2ccccc2)C[C@H]2O[C@]1(C)n1c3ccccc3c3c4c(c5c6ccccc6n2c5c31)C(=O)NC4 [Midostaurin] + Cc1nc(NC(=O)N2CCC[C@H]2C(N)=O)sc1-c1ccnc(C(C)(C)C(F)(F)F)c1 [Alpelisib] (partner 2 µM)
The procedure, abridged:
as §1

Compound in the assay “Midostaurin + Dasatinib”: CO[C@@H]1[C@H](N(C)C(=O)c2ccccc2)C[C@H]2O[C@]1(C)n1c3ccccc3c3c4c(c5c6ccccc6n2c5c31)C(=O)NC4 [Midostaurin] + Cc1nc(Nc2ncc(C(=O)Nc3c(C)cccc3Cl)s2)cc(N2CCN(CCO)CC2)n1 [Dasatinib] (partner 0.075 µM)
The method, boiled down:
as §1

Compound in the assay “Midostaurin + Phenformin”: CO[C@@H]1[C@H](N(C)C(=O)c2ccccc2)C[C@H]2O[C@]1(C)n1c3ccccc3c3c4c(c5c6ccccc6n2c5c31)C(=O)NC4 [Midostaurin] + N=C(N)NC(=N)NCCc1ccccc1 [Phenformin] (partner 250 µM)
The procedure, abridged: as §1

Compound in assay [1]: COc1cc(-c2nn([C@H]3CC[C@H](N4CCN(C(C)=O)CC4)CC3)c3ncnc(N)c23)ccc1NC(=O)c1cc2ccccc2n1C + CCNC(=O)c1noc(-c2cc(C(C)C)c(O)cc2O)c1-c1ccc(CN2CCOCC2)cc1 [Luminespib] (partner 0.01 µM)
The method, boiled down:
as §1

As to UMC-11, the relative viability with Midostaurin + Crizotinib (first compound 0.01 µM) stood at 0.553; with Midostaurin + Crizotinib (first compound 0.03162 µM), 0.53; in the assay with Midostaurin + Crizotinib (first compound 0.1 µM) it was 0.447; with Midostaurin + Crizotinib (first compound 0.3162 µM), 0.179; in the assay with Midostaurin + Alpelisib (first compound 0.01 µM), 1.04; with Midostaurin + Alpelisib (first compound 0.03162 µM) it was 0.915. Further, the relative viability in the assay with Midostaurin + Alpelisib (first compound 0.1 µM) was 0.792; with Midostaurin + Alpelisib (first compound 0.3162 µM), 0.375; in the assay with Midostaurin + Dasatinib (first compound 0.01 µM), 0.362; in the assay with Midostaurin + Dasatinib (first compound 0.03162 µM) it was 0.403; in the assay with Midostaurin + Dasatinib (first compound 0.1 µM) it was 0.444; with Midostaurin + Dasatinib (first compound 0.3162 µM), 0.344. In addition, the relative viability with Midostaurin + Phenformin (first compound 0.01 µM) came to 0.3; with Midostaurin + Phenformin (first compound 0.03162 µM), 0.328; with Midostaurin + Phenformin (first compound 0.1 µM) it was 0.32; in the assay with Midostaurin + Phenformin (first compound 0.3162 µM) it was 0.281; in assay [1] (first compound 0.0128 µM), 0.928; in assay [1] (first compound 0.04048 µM), 0.956. The results for the relative viability in assay [1] (first compound 0.128 µM) and in assay [1] (first compound 1.28 µM) were 0.922 and 0.818, respectively.
